The source of these data is PMC12670405, “Second-Generation AURKA-Targeting PROTACs: Structural Optimization toward in Vivo Degradation in Neuroblastoma” (Journal of Medicinal Chemistry, 2025).

Like-named read-outs stand apart in the source and are kept apart here.

In general, GI50 refers to the concentration giving 50% growth inhibition.

The test system of test [1] is RPE. As to the kind of experiment: IncuCyte live-cell imaging, antiproliferative effect. It counts as cell-based.
Test [2] addresses T1, AURKA (Homo sapiens, UniProt O14965).
T1 sequence (O14965 1-403): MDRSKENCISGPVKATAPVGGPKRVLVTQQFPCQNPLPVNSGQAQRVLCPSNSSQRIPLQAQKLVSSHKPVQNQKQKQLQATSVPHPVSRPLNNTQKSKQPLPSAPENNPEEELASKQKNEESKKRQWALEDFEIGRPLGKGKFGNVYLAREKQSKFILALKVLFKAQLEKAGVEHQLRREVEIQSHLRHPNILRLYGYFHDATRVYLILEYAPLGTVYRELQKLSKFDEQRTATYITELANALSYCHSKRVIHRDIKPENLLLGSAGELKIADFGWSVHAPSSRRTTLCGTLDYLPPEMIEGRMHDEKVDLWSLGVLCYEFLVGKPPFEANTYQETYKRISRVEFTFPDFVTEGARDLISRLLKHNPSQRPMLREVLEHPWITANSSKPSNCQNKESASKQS
As to the kind of experiment: In vivo pharmacodynamics study, IMR-32 cell line-derived xenograft, Western blot. Further details: from tissue; host or cells: IMR-32 cell line-derived xenograft tumours, BALB/c nude mice; species or system BALB/c nude mice. Conditions: for AURKA protein reduction in tumor (in words): single IP dose 15 mg/kg; for AURKA protein levels in tumor (in words): single IV dose 15 mg/kg. The procedure:
Protein lysates were denatured through addition of Laemmli buffer supplemented with β-mercaptoethanol (Sigma-Aldrich, #M6250) heated at 95 °C for 10 min. […] The ladder used was the PageRuler Prestained Protein Ladder (Thermo Fisher Scientific, #26617). Afterward, proteins were blotted on nitrocellulose membranes (Bio-Rad, #162-0233) by running at 100 V for 1 h with a buffer containing 10% 10× Tris/glycine (Bio-Rad, #161-0771) and 20% methanol (Thermo Fisher Scientific, #0390D). Ponceau staining was used for confirmation of protein transfer. Membranes were blocked in 5% milk/TBST or 5% BSA/TBST for 1 h at room temperature and subsequently incubated with primary antibodies overnight at 4 °C. Blots were washed 3× for 5 min each with TBST prior to incubation with secondary antibodies for 1 h at room temperature. Visualization of the blots was done using WestDura or WestFemto (Thermo Fisher Scientific, #34096, #34076) with the Amersham Imager 680 (BIOKÉ). Blots were stripped using the Restore Stripping Buffer (Thermo Fisher Scientific, #21059) prior to detection of additional proteins. Images were compiled and quantified using Sciugo (https://sciugo.com/). Per lane, quantified data were always normalized to that of the loading control (Vinculin or GAPDH), prior to calculating fold changes. Mean fold changes are calculated from 3 individual experiments. A list of the primary and secondary antibodies used can be found in the Supporting Information (Supplementary Table S7).
Both the in vivo pharmacokinetics and in vivo pharmacodynamics studies were performed by Eurofins Pharmacology Discovery Services. All mice were provided by BioLasco Taiwan (under Charles River Laboratories Licensee). Animals were acclimated for 3 days prior to use and were confirmed to be in good health. All aspects of this work including housing, experimentation, and animal disposal were performed in general accordance with the “Guide for the Care and Use of Laboratory Animals: Eighth Edition” (National Academies Press, Washington, DC. 2011) in a AAALAC-accredited laboratory animal facility. In addition, the animal care and use protocol was reviewed and approved by the IACUC at Eurofins Pharmacology Discovery Services; IN020-08202020 and ON002-07142023.
Six-week old female BALB/c nude mice were subcutaneously implanted with viable IMR-32 cells formulated in 50% Matrigel into the right flank (1 × 10^7 cells/mouse, in 0.2 mL volume). Palpable tumor volumes were measured with a caliper and calculated according to the prolate ellipsoid formula: tumor volume = length × width^2 × 0.5. When the mean tumor volume reached ∼250 mm^3, animals were randomized into groups (0, 4, 8, 24 h) with 3 animals per group. […] Other groups were given a single IV or IP administration of SK5527 or SK4454 at 15 mg/kg (dissolved in 5% DMSO/5% Solutol HS15/90% PBS). Tumors were subsequently harvested at the respective time points, snap-frozen in liquid nitrogen, and kept frozen at −70 °C until further processing. Upon receipt of the samples in our lab, we mechanically digested and lysed tumor pieces by adding cold RIPA lysis buffer (with protease and phosphatase inhibitors as previously described) and Stainless Steel Beads (Qiagen, #69989) followed by shaking for 2 min (twice) using TissueLyser II (Qiagen). Afterward, samples were centrifuged for 20 min (10,000 rpm, 4 °C). The supernatant was then collected and the concentration of the obtained protein lysates was measured using the Pierce BCA Protein Assay Kit (Thermo Fisher Scientific, #23227). Western blot was performed as previously described to visualize changes in AURKA protein levels.
On the technique in general: In western blotting, separated proteins are transferred to a membrane and probed.

In the case of `Cc1cc(Nc2ccc(F)c(CC3(C(=O)N4CCC(CN5CCN(c6ccc(N7CCC(=O)NC7=O)cn6)CC5)CC4)CCN(Cc4cccc(Cl)c4F)CC3)n2)n[nH]1` [SK4454], the GI50 in test [1] (72 h, read-out: Cell GI50 72h) was 221 nM. In addition, the “AURKA protein reduction in tumor (in words)” value in test [2] was “not observed”. The “AURKA protein levels in tumor (in words)” value in test [2] (4 and 8 h post-treatment) is recorded as “strongly reduced AURKA protein levels”; in test [2] (24 h), “return to baseline levels”.
Regarding `Cc1cc(Nc2ccc(F)c(CC3(C(=O)N4CCC(F)(CN5CCN(c6ccc(N7CCC(=O)NC7=O)cn6)CC5)CC4)CCN(Cc4cccc(Cl)c4F)CC3)n2)n[nH]1` [SK5527], the concentration for 50% growth inhibition (GI50) in test [1] (72 h, read-out: Cell GI50 72h) is 460 nM; in test [1] (72h, read-out: GI50), about 500 nM. The “AURKA protein reduction in tumor (in words)” value in test [2] is listed as “not observed”. Further, the “AURKA protein levels in tumor (in words)” value in test [2] (4 and 8 h post-treatment) is listed as “strongly reduced AURKA protein levels”; in test [2] (24 h), “return to baseline levels”.
